Assays:
[1] = test system: Leishmania amazonensis; test: Antileishmanial activity against wild-type Leishmania amazonensis MHOM/BR/1973/MM2269 promastigotes infected in human THP1 cells by luciferase based assay; format: functional, organism-based; conditions: THP-1
[2] = test system: Leishmania major; test: Antileishmanial activity against wild-type Leishmania major LV39 promastigotes infected in human THP1 cells by luciferase based assay; format: functional, organism-based; conditions: LV39, THP-1
[3] = test system: Leishmania major; test: Antileishmanial activity against ABC transporter PRP1 gene expressing Leishmania major LV39 promastigotes infected in human THP1 cells assessed as fold resistance by luciferase based assay relative to control; format: functional, THP-1
[4] = test system: Leishmania amazonensis; test: Antileishmanial activity against ABC transporter PRP1 gene expressing Leishmania amazonensis MHOM/BR/1973/MM2269 promastigotes infected in human THP1 cells assessed as fold resistance by luciferase based assay relative to control; format: functional, THP-1
[5] = test system: Leishmania infantum; test: Antileishmanial activity against ABC transporter PRP1 gene expressing Leishmania infantum MHOM/MA/67/ITMAP-263 axenic amastigotes assessed as fold resistance relative to control
[6] = test system: Leishmania infantum; test: Antileishmanial activity against wild-type Leishmania infantum MHOM/MA/67/ITMAP-263 promastigotes infected in human THP1 cells by luciferase based assay; format: functional, organism-based; conditions: THP-1

Compound | IC50 [1] | IC50 [2] | fold change (FC) [3] | fold change (FC) [4] | fold change (FC) [5] | IC50 [6]
N=C(N)c1ccc(OCCCCCOc2ccc(C(=N)N)cc2)cc1 [PENTAMIDINE] | 6.8 µg/mL | 5.1 µg/mL | 3 | 3 | 3 | 10 µg/mL
COc1ccc(CCN(C)CCCC(C#N)(c2ccc(OC)c(OC)c2)C(C)C)cc1OC (centres undefined) [VERAPAMIL] | 19.1 µM | 40.3 µM |  |  |  | 43.2 µM

Source: ChEMBL document CHEMBL1155136, “Role of the ABC transporter PRP1 (ABCC7) in pentamidine resistance in Leishmania amastigotes” (Antimicrob Agents Chemother, 2007)
